Data reported in patent publication EP4800012A1, “COMPOUND ACTING AS PARP7 INHIBITOR” (Dovetree Medicines Unus, Inc., priority 2023, dated 2025).

What was measured:
PARP1 = PARP1 (Homo sapiens, UniProt P09874); assay: PARP1 in vitro enzyme activity inhibition (chemiluminescence assay); format: biochemical; settings: 5 nM of PARP1 solution, method of test example 1; read-out: PARP1 activity inhibition IC50
Description: (§1) Following the method in test example 1, the IC50 value of the inhibition of each compound on PARP7 activity were detected and obtained. Reference was made to the method in test example 1, except that the 6.25 nM of PARP7 solution in the ribosylation reaction step was replaced with a 5 nM of PARP1 solution or a 5 nM of PARP2. Similar to the 6.25 nM of PARP7 solution, the 5 nM of PARP1 solution and 5 nM of PARP2 solution were also formulated and obtained by using 1× Assay buffer.

PARP7 [1] = biological target: T1, PARP7 (Homo sapiens, UniProt Q7Z3E1); assay: Inhibition of the compound on PARP7 protein activity (ADP-ribosylation, chemiluminescence); format: biochemical; settings: Histone H1 coated plate, Biotin-Labeled NAD+, 2 h at room temperature, chemiluminescence; read-out: PARP7 activity inhibition IC50
T1 construct: purchased BPS 80527
T1 sequence (Q7Z3E1 1-657): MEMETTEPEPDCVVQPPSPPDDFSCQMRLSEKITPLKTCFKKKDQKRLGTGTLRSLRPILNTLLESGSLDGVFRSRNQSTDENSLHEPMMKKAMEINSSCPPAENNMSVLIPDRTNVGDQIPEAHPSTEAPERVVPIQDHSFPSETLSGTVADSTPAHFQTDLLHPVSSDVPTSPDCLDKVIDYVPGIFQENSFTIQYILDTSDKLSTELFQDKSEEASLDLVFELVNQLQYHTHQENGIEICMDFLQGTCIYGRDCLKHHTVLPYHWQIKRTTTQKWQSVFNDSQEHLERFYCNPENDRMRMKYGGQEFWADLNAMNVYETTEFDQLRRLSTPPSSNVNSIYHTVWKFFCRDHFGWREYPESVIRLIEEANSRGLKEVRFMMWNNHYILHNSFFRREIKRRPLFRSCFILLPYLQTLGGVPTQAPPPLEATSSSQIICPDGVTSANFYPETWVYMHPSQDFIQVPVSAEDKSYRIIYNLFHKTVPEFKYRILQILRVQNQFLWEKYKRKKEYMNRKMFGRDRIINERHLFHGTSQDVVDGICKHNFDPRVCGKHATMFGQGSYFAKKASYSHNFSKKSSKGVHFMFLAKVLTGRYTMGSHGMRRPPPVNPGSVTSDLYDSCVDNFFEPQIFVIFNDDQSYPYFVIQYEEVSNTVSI

NCI-H1373 cells = assay: Inhibition on NCI-H1373 cell proliferation (Cell-Titer-Glo); format: cell-based; settings: Homo sapiens, 144 h; NCI-H1373 cells, incubation for 6 days, Cell-Titer-Glo; read-out: NCI-H1373 cell proliferation inhibition IC50
PARP7 [2] = biological target: T1, PARP7; assay: PARP7 TR-FRET binding inhibition (displacement of probe RBN011147); settings: TR-FRET, Biotin-labeled probe RBN011147; read-out: PARP7 binding inhibition IC50
Description: The ability of the compound to substitute the probe RBN011147 (Wigle et al., 2020, Cell Chemical Biology 27, 877-887) was tested by a TR-FRET method, and IC50 was calculated to evaluate the binding ability of the compound to PARP7. […]

PARP7 [3] = biological target: T1, PARP7; assay: PARP7 in vitro enzyme activity inhibition (chemiluminescence assay, selectivity test); format: biochemical; settings: 6.25 nM of PARP7 solution, method of test example 1; read-out: PARP7 activity inhibition IC50
Description: as §1

PARP2 = PARP2 (Homo sapiens, UniProt Q9UGN5); assay: PARP2 in vitro enzyme activity inhibition (chemiluminescence assay); format: biochemical; settings: 5 nM of PARP2, method of test example 1; read-out: PARP2 activity inhibition IC50
Description: as §1

Chain of PARP1 (P09874 whole entry, species assumed): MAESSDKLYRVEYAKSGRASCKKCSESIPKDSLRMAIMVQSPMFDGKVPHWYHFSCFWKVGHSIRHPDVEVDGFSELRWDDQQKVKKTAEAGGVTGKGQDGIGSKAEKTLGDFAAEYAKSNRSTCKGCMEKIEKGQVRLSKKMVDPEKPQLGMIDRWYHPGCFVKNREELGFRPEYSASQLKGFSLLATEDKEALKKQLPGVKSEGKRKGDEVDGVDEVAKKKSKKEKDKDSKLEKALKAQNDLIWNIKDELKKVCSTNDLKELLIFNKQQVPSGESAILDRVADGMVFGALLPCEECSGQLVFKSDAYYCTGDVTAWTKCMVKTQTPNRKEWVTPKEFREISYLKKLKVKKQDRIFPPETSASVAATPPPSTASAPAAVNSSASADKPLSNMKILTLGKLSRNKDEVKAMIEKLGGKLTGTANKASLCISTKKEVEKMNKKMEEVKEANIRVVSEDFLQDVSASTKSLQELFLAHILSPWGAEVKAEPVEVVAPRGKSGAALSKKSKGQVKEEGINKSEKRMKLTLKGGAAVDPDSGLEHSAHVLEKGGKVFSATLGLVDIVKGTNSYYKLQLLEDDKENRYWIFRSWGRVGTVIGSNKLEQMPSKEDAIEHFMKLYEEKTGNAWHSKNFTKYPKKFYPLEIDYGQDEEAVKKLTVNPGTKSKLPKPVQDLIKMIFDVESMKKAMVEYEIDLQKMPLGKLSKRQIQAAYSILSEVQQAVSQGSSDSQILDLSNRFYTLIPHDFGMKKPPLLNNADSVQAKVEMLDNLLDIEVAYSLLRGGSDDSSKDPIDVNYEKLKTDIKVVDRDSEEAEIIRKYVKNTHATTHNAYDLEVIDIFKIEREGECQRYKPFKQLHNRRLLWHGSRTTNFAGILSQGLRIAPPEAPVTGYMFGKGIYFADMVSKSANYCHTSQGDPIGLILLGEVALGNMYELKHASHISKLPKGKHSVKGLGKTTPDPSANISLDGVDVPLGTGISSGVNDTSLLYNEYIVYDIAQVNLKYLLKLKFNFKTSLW
Chain of PARP2 (Q9UGN5 whole entry, species assumed): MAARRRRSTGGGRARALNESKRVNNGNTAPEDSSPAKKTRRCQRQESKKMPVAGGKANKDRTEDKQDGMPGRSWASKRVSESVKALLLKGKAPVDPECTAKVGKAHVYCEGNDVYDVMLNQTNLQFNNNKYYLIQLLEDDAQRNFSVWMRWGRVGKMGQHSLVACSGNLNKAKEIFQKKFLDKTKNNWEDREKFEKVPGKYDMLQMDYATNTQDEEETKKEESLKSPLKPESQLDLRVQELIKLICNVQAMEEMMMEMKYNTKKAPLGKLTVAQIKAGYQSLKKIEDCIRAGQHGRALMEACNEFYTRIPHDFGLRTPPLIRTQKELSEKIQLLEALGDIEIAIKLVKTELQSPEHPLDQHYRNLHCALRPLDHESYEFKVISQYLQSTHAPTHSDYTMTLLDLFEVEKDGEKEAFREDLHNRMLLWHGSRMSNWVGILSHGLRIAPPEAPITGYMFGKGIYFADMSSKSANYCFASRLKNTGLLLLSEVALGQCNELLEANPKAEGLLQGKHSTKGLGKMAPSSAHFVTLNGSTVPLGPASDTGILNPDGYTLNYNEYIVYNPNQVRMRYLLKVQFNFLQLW

IC50 (PARP1) [nM]	IC50 (PARP7 [1]) [nM]	IC50 (NCI-H1373 cells) [nM]	IC50 (PARP7 [2]) [nM]	IC50 (PARP7 [3]) [nM]	IC50 (PARP2) [nM]	Compound
> 100	3 to 10	< 300	< 10	3 to 10	3 to 10	O=C(NCCC[C@@H](Nc1cn[nH]c(=O)c1C(F)(F)F)C(=O)NC1CCC1)c1ccc(-c2ncc(C(F)(F)F)s2)cc1 [Example 228]
30 to 100	< 3	< 300	10 to 30	< 3	10 to 30	CNC(=O)[C@@H](CCCNC(=O)c1ccc(-c2ncc(C(F)(F)F)s2)cc1)Nc1cn[nH]c(=O)c1C(F)(F)F [Example 229]
30 to 100	3 to 10	< 300	30 to 100	3 to 10	3 to 10	CN(C(=O)[C@@H](CCCNC(=O)c1ccc(-c2ncc(C(F)(F)F)s2)cc1)Nc1cn[nH]c(=O)c1C(F)(F)F)C1CCC1 [Example 230]
10 to 30	< 3	< 300	< 10	< 3	3 to 10	CCNC(=O)C(CCCNC(=O)c1ccc(-c2ncc(C(F)(F)F)s2)cc1)Nc1cn[nH]c(=O)c1C(F)(F)F (stereo not drawn) [Example 231]
3 to 10	< 3	300 to 1000	10 to 30	< 3	3 to 10	C[C@H]1CCN(C(=O)[C@@H](CCCNC(=O)c2ccc(-c3ncc(C(F)(F)F)s3)cc2)Nc2cn[nH]c(=O)c2C(F)(F)F)C1 [Example 232]
3 to 10	< 3	300 to 1000	< 10	< 3	< 3	CC1CN(C(=O)[C@@H](CCCNC(=O)c2ccc(-c3ncc(C(F)(F)F)s3)cc2)Nc2cn[nH]c(=O)c2C(F)(F)F)C1 [Example 233]
3 to 10	< 3	300 to 1000	< 10	< 3	3 to 10	O=C(NCCCC(Nc1cn[nH]c(=O)c1C(F)(F)F)C(=O)NC1CCCOC1)c1ccc(-c2ncc(C(F)(F)F)s2)cc1 (stereo not drawn) [Example 235]
10 to 30	< 3	300 to 1000	< 10	< 3	3 to 10	CO[C@H]1CCN(C(=O)[C@@H](CCCNC(=O)c2ccc(-c3ncc(C(F)(F)F)s3)cc2)Nc2cn[nH]c(=O)c2C(F)(F)F)C1 [Example 237]
30 to 100	< 3	300 to 1000	< 10	< 3	10 to 30	C[C@@H]1COCCN1C(=O)[C@@H](CCCNC(=O)c1ccc(-c2ncc(C(F)(F)F)s2)cc1)Nc1cn[nH]c(=O)c1C(F)(F)F [Example 238]
10 to 30	< 3	300 to 1000	10 to 30	< 3	> 100	N#C[C@@H]1CCN(C(=O)[C@@H](CCCNC(=O)c2ccc(-c3ncc(C(F)(F)F)s3)cc2)Nc2cn[nH]c(=O)c2C(F)(F)F)C1 [Example 239]
10 to 30	< 3	1000 to 3000	10 to 30	< 3	3 to 10	O=C(NCCC[C@@H](Nc1cn[nH]c(=O)c1C(F)(F)F)C(=O)N1CC[C@H](F)C1)c1ccc(-c2ncc(C(F)(F)F)s2)cc1 [Example 241]
30 to 100	3 to 10	1000 to 3000	10 to 30	3 to 10	3 to 10	CC1(F)CN(C(=O)[C@@H](CCCNC(=O)c2ccc(-c3ncc(C(F)(F)F)s3)cc2)Nc2cn[nH]c(=O)c2C(F)(F)F)C1 [Example 242]
3 to 10	< 3	> 3000	< 10	< 3	3 to 10	N#CC1CCN(C(=O)[C@@H](CCCNC(=O)c2ccc(-c3ncc(C(F)(F)F)s3)cc2)Nc2cn[nH]c(=O)c2C(F)(F)F)CC1 [Example 243]
